Experimental data from patent US9028845B2, “Chimeric immunomodulatory compounds and methods of using the same-IV” (Dynavax Technologies Corporation, priority 2001, dated 2015).

Test system: human PBMCs
Assay: Human PBMC cytokine response assay (IFN-γ and IFN-α in cell-free medium by ELISA), with or without cPLGA;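 for IFN-α (pg/ml) mean: 20 µg/mL compound for 24 hours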;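 for IFN-γ (pg/ml) mean: 20 µg/mL compound for 24 hours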
Assay type: cell-based
Conditions: for IFN-a / IFN-g / IFN-a mean / IFN-g mean: Table 25; for IFN-a mean / IFN-g mean: mean of donors 28250-28253; for immunomodulatory activity (IFN-γ / IFN-α secretion), in words: used alone (no cPLGA)
[1] = donor 28250, polynucleotides/spacers at amounts equivalent to the CIC, spacers alone 9 uM
[2] = donor 28066, 20 ug/ml, 24 h, + PLGA = premixed with 100 μg/ml cPLGA
[3] = donor 28067, 20 ug/ml, 24 h, + PLGA = premixed with 100 μg/ml cPLGA
[4] = donor 28068, 20 ug/ml, 24 h, + PLGA = premixed with 100 μg/ml cPLGA
[5] = mean of Donors 3-4, 20 μg/ml, 24 h
[6] = mean of donors 28065-28068, 20 ug/ml, 24 h, + PLGA = premixed with 100 μg/ml cPLGA
[7] = mean of donors 110, 112, 119, 120, Table 14
[8] = mean of donors 28057-28060, Table 16

5′-ACGTTCG-3′ [Compound P-3, reference compound]
IFN-α (pg/ml) Donor 3 (Donor 3, 20 μg/ml, 24 h): 0 pg/mL
IFN-γ (pg/ml) Donor 3 (Donor 3, 20 μg/ml, 24 h): 1 pg/mL
IFN-α (pg/ml) Donor 4 (Donor 4, 20 μg/ml, 24 h): 32 pg/mL
IFN-γ (pg/ml) Donor 4 (Donor 4, 20 μg/ml, 24 h): 3 pg/mL
IFN-a (donor 28250): 16 pg/mL
IFN-g [1]: 32 pg/mL
IFN-a (donor 28251): 29 pg/mL
IFN-g (donor 28251): 21 pg/mL
IFN-a (donor 28252): 38 pg/mL
IFN-g (donor 28252): 72 pg/mL
IFN-a (donor 28253): 31 pg/mL
IFN-g (donor 28253): 1 pg/mL
IFN-a mean: 29 pg/mL
IFN-g mean: 31 pg/mL
IFN-γ (pg/ml) 28065 (donor 28065 (high background), 20 ug/ml, 24 h, + PLGA = premixed with 100 μg/ml cPLGA, 1000 = outside assay limits): 94 pg/mL
IFN-α (pg/ml) 28065 (donor 28065, 20 ug/ml, 24 h, + PLGA = premixed with 100 μg/ml cPLGA): 0 pg/mL
IFN-α (pg/ml) 28066 [2]: 0 pg/mL
IFN-γ (pg/ml) 28066 [2]: 27 pg/mL
IFN-α (pg/ml) 28067 [3]: 5 pg/mL
IFN-γ (pg/ml) 28067 [3]: 1 pg/mL
IFN-α (pg/ml) 28068 [4]: 0 pg/mL
IFN-γ (pg/ml) 28068 [4]: 0 pg/mL
IFN-α (pg/ml) mean [5]: 16 pg/mL
IFN-γ (pg/ml) mean [5]: 2 pg/mL
IFN-α (pg/ml) mean [6]: 1 pg/mL
IFN-γ (pg/ml) mean [6]: 31 pg/mL
immunomodulatory activity (IFN-γ / IFN-α secretion), in words: did not have immunomodulatory activity

5′-TCGTTTT-3′-HEG-5′-TCGTTTT-3′-HEG-5′-TCGTTTT-3′ [Compound C-41]
IFN-α (Table 10, donor 28042): 0 pg/mL
IFN-γ (Table 10, donor 28042): 174 pg/mL
IFN-α (Table 10, donor 28043): 3 pg/mL
IFN-γ (Table 10, donor 28043): 1075 pg/mL
IFN-α (Table 10, donor 28044): 23 pg/mL
IFN-γ (Table 10, donor 28044): 841 pg/mL
IFN-α (Table 10, donor 28045): 0 pg/mL
IFN-γ (Table 10, donor 28045): 45 pg/mL
IFN-α mean (Table 10, mean of donors): 7 pg/mL
IFN-γ mean (Table 10, mean of donors): 534 pg/mL
IFN-α (donor 110, Table 14): 58 pg/mL
IFN-γ (donor 110, Table 14): 512 pg/mL
IFN-α (donor 112, Table 14): 2 pg/mL
IFN-γ (donor 112, Table 14): 100 pg/mL
IFN-α (donor 119, Table 14): 182 pg/mL
IFN-γ (donor 119, Table 14): 32 pg/mL
IFN-α (donor 120, Table 14): 6 pg/mL
IFN-γ (donor 120, Table 14): 32 pg/mL
IFN-α (pg/ml) mean [7]: 62 pg/mL
IFN-γ (pg/ml) mean [7]: 169 pg/mL

5′-ACGTTCG-3′-HEG-5′-AGATGAT-3′-HEG-5′-TCGTCGA-3′ [Compound C-58]
IFN-α (Table 13, donor 28156): 13 pg/mL
IFN-γ (Table 13, donor 28156): 404 pg/mL
IFN-α (Table 13, donor 28157): 30 pg/mL
IFN-γ (Table 13, donor 28157): 288 pg/mL
IFN-α (Table 13, donor 28158): 29 pg/mL
IFN-γ (Table 13, donor 28158): 59 pg/mL
IFN-α (Table 13, donor 28159): 23 pg/mL
IFN-γ (Table 13, donor 28159): 84 pg/mL
IFN-α mean (Table 13, mean of donors): 24 pg/mL
IFN-γ mean (Table 13, mean of donors): 209 pg/mL

OCC(O)CO [Glycerol]
IFN-a (donor 28250): 16 pg/mL
IFN-g [1]: 16 pg/mL
IFN-a (donor 28251): 16 pg/mL
IFN-g (donor 28251): 12 pg/mL
IFN-a (donor 28252): 16 pg/mL
IFN-g (donor 28252): 2 pg/mL
IFN-a (donor 28253): 16 pg/mL
IFN-g (donor 28253): 1 pg/mL
IFN-a mean: 16 pg/mL
IFN-g mean: 8 pg/mL

5′-TCGTCG-3′-(TEG)8-5′-T-3′ [Compound C-15]
IFN-α (donor 28057, Table 16): 0 pg/mL
IFN-γ (donor 28057, Table 16): 5 pg/mL
IFN-α (donor 28058, Table 16): 0 pg/mL
IFN-γ (donor 28058, Table 16): 3 pg/mL
IFN-α (donor 28059, Table 16): 0 pg/mL
IFN-γ (donor 28059, Table 16): 0 pg/mL
IFN-α (donor 28060, Table 16): 0 pg/mL
IFN-γ (donor 28060, Table 16): 1 pg/mL
activity when formulated with cPLGA, in words (formulated with cPLGA): all had significant activity when formulated on cPLGA
IFN-α (pg/ml) mean [8]: 0 pg/mL
IFN-γ (pg/ml) mean [8]: 2 pg/mL
immunomodulatory activity (IFN-γ / IFN-α secretion), in words: None of the CICs was active when used alone

(5′-TAGTCAT-3′-HEG)2-glycerol-HEG-5′-AACCTTC-3′ [Compound M-3, reference compound]
IFN-α (Example 58, 0.8 ug/ml, donor 1): 52 pg/mL
IFN-α (Example 58, 0.8 ug/ml, donor 2): 52 pg/mL
IFN-α (Example 58, 0.8 ug/ml, donor 3): 52 pg/mL
IFN-α (Example 58, 0.8 ug/ml, donor 4): 52 pg/mL
IFN-α mean (Example 58, 0.8 ug/ml, mean of four individuals): 52 pg/mL
IFN-α (Example 58, 4 ug/ml, donor 1): 52 pg/mL
IFN-α (Example 58, 4 ug/ml, donor 2): 52 pg/mL
IFN-α (Example 58, 4 ug/ml, donor 3): 52 pg/mL
IFN-α (Example 58, 4 ug/ml, donor 4): 52 pg/mL
IFN-α mean (Example 58, 4 ug/ml, mean of four individuals): 52 pg/mL
IFN-α (Example 58, 20 ug/ml, donor 1): 52 pg/mL
IFN-α (Example 58, 20 ug/ml, donor 2): 52 pg/mL
IFN-α (Example 58, 20 ug/ml, donor 3): 52 pg/mL
IFN-α (Example 58, 20 ug/ml, donor 4): 52 pg/mL
IFN-α mean (Example 58, 20 ug/ml, mean of four individuals): 52 pg/mL
IFN-α (Example 59, 0.8 ug/ml, donor 48): 102 pg/mL
IFN-α (Example 59, 0.8 ug/ml, donor 177): 102 pg/mL
IFN-α (Example 59, 0.8 ug/ml, donor 272): 102 pg/mL
IFN-α (Example 59, 0.8 ug/ml, donor 273): 102 pg/mL
IFN-α mean (Example 59, 0.8 ug/ml, mean of four donors): 102 pg/mL
IFN-α (Example 59, 4 ug/ml, donor 48): 102 pg/mL
IFN-α (Example 59, 4 ug/ml, donor 177): 102 pg/mL
IFN-α (Example 59, 4 ug/ml, donor 272): 102 pg/mL
IFN-α (Example 59, 4 ug/ml, donor 273): 102 pg/mL
IFN-α mean (Example 59, 4 ug/ml, mean of four donors): 102 pg/mL
IFN-α (Example 59, 20 ug/ml, donor 48): 102 pg/mL
IFN-α (Example 59, 20 ug/ml, donor 177): 102 pg/mL
IFN-α (Example 59, 20 ug/ml, donor 272): 102 pg/mL
IFN-α (Example 59, 20 ug/ml, donor 273): 102 pg/mL
IFN-α mean (Example 59, 20 ug/ml, mean of four donors): 102 pg/mL
